Assay results published in ChEMBL document CHEMBL5241112, “Insights into the recent progress in the medicinal chemistry of pyranopyrimidine analogs” (RSC Med Chem, 2022).
In brackets after ≈: the same amount, converted by molar mass. Values belong to the compound of their own block, whether it stands above or below them.

Tests used:
[1] = system: Escherichia coli; assay: Antibacterial activity against Escherichia coli assessed as inhibition of bacterial growth; format: functional
[2] = system: Pseudomonas aeruginosa; assay: Antibacterial activity against Pseudomonas aeruginosa assessed as inhibition of bacterial growth; format: functional
[3] = system: Staphylococcus aureus; assay: Antibacterial activity against Staphylococcus aureus assessed as inhibition of bacterial growth; format: functional
[4] = system: Candida albicans; assay: Antifungal activity against Candida albicans assessed as inhibition of fungal growth; format: functional
[5] = system: Aspergillus niger; assay: Antifungal activity against Aspergillus niger assessed as inhibition of fungal growth; format: functional
[6] = system: Aspergillus flavus; assay: Antifungal activity against Aspergillus flavus assessed as inhibition of fungal growth; format: functional
[7] = system: Bacillus cereus; assay: Antimicrobial activity against Bacillus cereus ATCC14579 assessed as diameter of inhibition zone at 20 mg/ml incubated for 24 hrs by disk diffusion method; format: functional; conditions: read-out: DIZ
[8] = system: Staphylococcus aureus; assay: Antimicrobial activity against Staphylococcus aureus NCTC7447 assessed as diameter of inhibition zone at 20 mg/ml incubated for 24 hrs by disk diffusion method; format: functional; conditions: read-out: DIZ
[9] = system: Klebsiella pneumoniae; assay: Antimicrobial activity against Klebsiella pneumoniae UC57 assessed as diameter of inhibition zone at 20 mg/ml incubated for 24 hrs by disk diffusion method; format: functional; conditions: read-out: DIZ
[10] = system: Pseudomonas aeruginosa; assay: Antimicrobial activity against Pseudomonas aeruginosa ATCC 27853 assessed as diameter of inhibition zone at 20 mg/ml incubated for 24 hrs by disk diffusion method; format: functional; conditions: read-out: DIZ
[11] = system: Escherichia coli; assay: Antimicrobial activity against Escherichia coli ATCC 14169 assessed as diameter of inhibition zone at 20 mg/ml incubated for 24 hrs by disk diffusion method; format: functional; conditions: read-out: DIZ
[12] = system: Staphylococcus aureus; assay: Antibacterial activity against Staphylococcus aureus assessed as diameter of inhibition zone; format: functional
[13] = system: Bacillus subtilis; assay: Antibacterial activity against Bacillus subtilis assessed as diameter of inhibition zone; format: functional
[14] = system: Escherichia coli; assay: Antibacterial activity against Escherichia coli assessed as diameter of inhibition zone; format: functional
[15] = system: Salmonella typhimurium; assay: Antibacterial activity against Salmonella typhimurium assessed as diameter of inhibition zone; format: functional, Salmonella enterica subsp. enterica serovar Typhimurium
[16] = system: HepG2; assay: Anticancer activity against human HepG2 cells assessed as reduction in cell viability; format: functional, cell-based
[17] = system: MCF7; assay: Anticancer activity against human MCF7 cells assessed as reduction in cell viability; format: functional, cell-based
[18] = molecular target: Urease (Canavalia ensiformis, UniProt P07374); assay: Inhibition of jack bean urease by phenol red method
[19] = system: HCT-116; assay: cells; conditions: Homo sapiens
[20] = system: Klebsiella pneumoniae; assay: Antibacterial activity against Klebsiella pneumoniae MTCC 109 assessed as diameter of inhibition zone at 0.1 mg/ml incubated for 24 hrs by agar well diffusion method; format: functional; conditions: read-out: DIZ
[21] = system: Staphylococcus aureus; assay: Antibacterial activity against Staphylococcus aureus MTCC 87 assessed as diameter of inhibition zone at 0.1 mg/ml incubated for 24 hrs by agar well diffusion method; format: functional; conditions: read-out: DIZ
[22] = molecular target: Alpha-glucosidase (Saccharomyces cerevisiae S288c, UniProt P53341+P38158+P07265); assay: Inhibition of Saccharomyces cerevisiae alpha-glucosidase preincubated for 5 mins followed by PNP-GLUC substrate addition and measured after 20 mins by spectroscopic analysis; format: protein assay
[23] = molecular target: Albumin (Bos taurus, UniProt P02769); assay: […] bovine serum albumin denaturation incubated for 23 mins by UV-Visible spectrophotometry
[24] = Inhibition of porcine pancreatic alpha-amylase preincubated for 10 mins followed by substrate starch addition and measured after 10 mins by colorimetric analysis; parameters: species or system Sus scrofa
[25] = system: Staphylococcus aureus; assay: Antibacterial activity against Staphylococcus aureus assessed as diameter of inhibition zone at 100 ug/ml by disc diffusion method; format: functional; conditions: read-out: DIZ
[26] = system: Candida albicans; assay: Antifungal activity against Candida albicans assessed as diameter of inhibition zone at 100 ug/ml by agar disc diffusion method; format: functional; conditions: read-out: DIZ
[27] = system: Escherichia coli; assay: Antibacterial activity against Escherichia coli assessed as diameter of inhibition zone at 100 ug/ml by disc diffusion method; format: functional; conditions: read-out: DIZ
[28] = system: Bacillus subtilis; assay: Antibacterial activity against Bacillus subtilis assessed as diameter of inhibition zone at 100 ug/ml by disc diffusion method; format: functional; conditions: read-out: DIZ
[29] = system: Klebsiella pneumoniae; assay: Antibacterial activity against Klebsiella pneumoniae assessed as diameter of inhibition zone at 100 ug/ml by disc diffusion method; format: functional; conditions: read-out: DIZ
[30] = system: Aspergillus flavus; assay: Antifungal activity against Aspergillus flavus assessed as diameter of inhibition zone at 100 ug/ml by agar disc diffusion method; format: functional; conditions: read-out: DIZ
[31] = system: Klebsiella pneumoniae; assay: Antimicrobial activity against Klebsiella pneumoniae ATCC 15380 assessed as diameter of inhibition zone at 20 mg/ml incubated for 24 hrs by disk diffusion method; format: functional; conditions: read-out: DIZ
[32] = system: Salmonella typhimurium; assay: Antimicrobial activity against Salmonella typhimurium ATCC 19430 assessed as diameter of inhibition zone at 20 mg/ml incubated for 24 hrs by disk diffusion method; format: functional, Salmonella enterica subsp. enterica serovar Typhimurium; conditions: Salmonella enterica, read-out: DIZ
[33] = system: Escherichia coli; assay: Antibacterial activity against Escherichia coli MTCC 723 assessed as diameter of inhibition zone at 0.1 mg/ml incubated for 24 hrs by agar well diffusion method; format: functional; conditions: read-out: DIZ
[34] = system: Pseudomonas aeruginosa; assay: Antibacterial activity against Pseudomonas aeruginosa MTCC 741 assessed as diameter of inhibition zone at 0.1 mg/ml incubated for 24 hrs by agar well diffusion method; format: functional; conditions: read-out: DIZ
[35] = system: Candida albicans; assay: Antifungal activity against Candida albicans MTCC 3008 assessed as fungal growth inhibition by broth microdilution method; format: functional
[36] = system: Escherichia coli; assay: Antimicrobial activity against Escherichia coli ATCC 25922 assessed as diameter of inhibition zone at 20 mg/ml incubated for 24 hrs by disk diffusion method; format: functional; conditions: read-out: DIZ
[37] = system: HCT-116; assay: Anticancer activity against human HCT-116 cells assessed as reduction in cell viability incubated for 96 hrs by MTT assay; format: functional, cell-based; conditions: HCT-116, 96 h

Sequence of Albumin (P02769 whole entry): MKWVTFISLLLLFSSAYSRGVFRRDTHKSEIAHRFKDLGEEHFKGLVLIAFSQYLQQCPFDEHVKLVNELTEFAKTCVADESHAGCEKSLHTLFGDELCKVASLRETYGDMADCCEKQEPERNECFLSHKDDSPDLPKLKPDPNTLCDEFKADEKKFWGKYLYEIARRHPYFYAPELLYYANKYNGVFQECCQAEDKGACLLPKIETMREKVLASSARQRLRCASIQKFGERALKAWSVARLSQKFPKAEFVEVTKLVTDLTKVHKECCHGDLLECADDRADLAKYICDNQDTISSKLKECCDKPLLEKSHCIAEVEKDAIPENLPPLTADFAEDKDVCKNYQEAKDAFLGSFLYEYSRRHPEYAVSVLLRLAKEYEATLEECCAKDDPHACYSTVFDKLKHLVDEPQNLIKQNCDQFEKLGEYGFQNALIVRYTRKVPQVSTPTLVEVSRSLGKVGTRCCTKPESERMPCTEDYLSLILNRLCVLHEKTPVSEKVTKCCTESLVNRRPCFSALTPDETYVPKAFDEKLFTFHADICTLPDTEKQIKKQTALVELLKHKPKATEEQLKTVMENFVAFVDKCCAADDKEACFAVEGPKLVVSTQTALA
Sequence of Urease (P07374 whole entry): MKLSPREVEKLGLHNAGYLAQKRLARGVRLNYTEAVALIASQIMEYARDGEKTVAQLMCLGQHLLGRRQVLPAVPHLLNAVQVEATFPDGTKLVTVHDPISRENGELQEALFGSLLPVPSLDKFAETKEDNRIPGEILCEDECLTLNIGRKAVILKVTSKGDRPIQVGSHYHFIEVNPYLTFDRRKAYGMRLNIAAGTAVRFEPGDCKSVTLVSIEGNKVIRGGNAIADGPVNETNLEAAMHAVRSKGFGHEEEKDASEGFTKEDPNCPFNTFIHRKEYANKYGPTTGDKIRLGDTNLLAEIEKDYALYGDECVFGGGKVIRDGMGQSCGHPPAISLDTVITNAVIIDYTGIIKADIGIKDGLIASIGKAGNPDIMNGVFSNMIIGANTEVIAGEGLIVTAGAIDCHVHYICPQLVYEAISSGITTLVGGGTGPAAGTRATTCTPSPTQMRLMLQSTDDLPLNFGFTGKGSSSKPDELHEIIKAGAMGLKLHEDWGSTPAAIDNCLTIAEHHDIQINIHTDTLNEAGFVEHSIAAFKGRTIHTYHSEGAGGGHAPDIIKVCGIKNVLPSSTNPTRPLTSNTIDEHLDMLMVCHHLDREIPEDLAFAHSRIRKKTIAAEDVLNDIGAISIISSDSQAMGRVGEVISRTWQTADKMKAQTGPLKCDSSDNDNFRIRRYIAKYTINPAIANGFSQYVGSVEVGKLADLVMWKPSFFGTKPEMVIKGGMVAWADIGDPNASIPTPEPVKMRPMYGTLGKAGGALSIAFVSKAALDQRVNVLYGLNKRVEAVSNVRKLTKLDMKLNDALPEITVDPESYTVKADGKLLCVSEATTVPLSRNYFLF

MIC [1]: 25 µg/mL (≈ 84.4 µM)
MIC [2]: 87.5 µg/mL (≈ 295 µM)
MIC [3]: 25 µg/mL (≈ 84.4 µM)
MIC [4]: 125 µg/mL (≈ 422 µM)
MIC [5]: 162 µg/mL (≈ 548 µM)
MIC [6]: 150 µg/mL (≈ 506 µM)
SMILES: N#CC1=C(N)Oc2[nH]c(=O)[nH]c(=O)c2C1Cc1ccccc1 (stereo not given)

SMILES: COc1ccc(C2C(C#N)=C(N)Oc3[nH]c(=O)[nH]c(=O)c32)cc1 (stereo not given)
zone of inhibition at 20000 µg/mL [7]: 11 mm
zone of inhibition at 20000 µg/mL [8]: 14 mm
zone of inhibition at 20000 µg/mL [9]: 14 mm
zone of inhibition at 20000 µg/mL [10]: 5 mm
zone of inhibition at 20000 µg/mL [11]: 8 mm
diameter of the inhibition zone (DIZ) [12]: 10 mm
diameter of the inhibition zone (DIZ) [13]: 12 mm
diameter of the inhibition zone (DIZ) [14]: 10 mm
diameter of the inhibition zone (DIZ) [15]: 8 mm
MIC [1]: 25 µg/mL (≈ 80.1 µM)
MIC [2]: 25 µg/mL (≈ 80.1 µM)
MIC [4]: 125 µg/mL (≈ 400 µM)
MIC [5]: 162 µg/mL (≈ 520 µM)
MIC [6]: 150 µg/mL (≈ 480 µM)
IC50 [16]: 2.09 µM
IC50 [17]: 2.43 µM
IC50 [18]: 62.9 µM
IC50 [19]: 2.61 µM

IC50 [22]: 4101 µM
IC50 [23]: 12.3 µM
IC50 [24]: 42.8 µM
SMILES: O=C(C1=C(c2ccccc2O)Oc2[nH]c(=S)[nH]c(=O)c2C1c1ccc(F)cc1)N1CCCCC1 (stereo not given)
zone of inhibition at 100 µg/mL [20]: 9.2 mm
zone of inhibition at 100 µg/mL [21]: 10.5 mm

SMILES: CCOC(=O)C1=C(C)Oc2nc(C)n(Cc3cn(-c4cccc([N+](=O)[O-])c4)nn3)c(=O)c2C1c1ccc([N+](=O)[O-])cc1 (stereo not given)
zone of inhibition at 100 µg/mL [25]: 16 mm
zone of inhibition at 100 µg/mL [26]: 16.5 mm
zone of inhibition at 100 µg/mL [27]: 15 mm

SMILES: CCOC(=O)C1=C(C)Oc2nc(C)n(Cc3cn(-c4ccc(Cl)cc4)nn3)c(=O)c2C1c1ccc([N+](=O)[O-])cc1 (stereo not given)
zone of inhibition at 100 µg/mL [28]: 13 mm
zone of inhibition at 100 µg/mL [25]: 15 mm
zone of inhibition at 100 µg/mL [29]: 16.5 mm
zone of inhibition at 100 µg/mL [26]: 17.5 mm
zone of inhibition at 100 µg/mL [30]: 17.5 mm
zone of inhibition at 100 µg/mL [27]: 17 mm

SMILES: N#CC1=C(N)Oc2[nH]c(=O)[nH]c(=O)c2C1c1ccc[nH]1 (stereo not given)
zone of inhibition at 20000 µg/mL [31]: 16 mm
zone of inhibition at 20000 µg/mL [32]: 20 mm

IC50 [22]: 4021 µM
IC50 [23]: 26.7 µM
IC50 [24]: 9.9 µM
SMILES: O=C(C1=C(c2ccccc2O)Oc2[nH]c(=S)[nH]c(=O)c2C1c1ccc(Cl)cc1)N1CCCCC1 (stereo not given)
zone of inhibition at 100 µg/mL [33]: 14.1 mm
zone of inhibition at 100 µg/mL [34]: 13.1 mm

SMILES: CCOC(=O)C1=C(C)Oc2nc(C)n(Cc3cn(-c4cccc(F)c4)nn3)c(=O)c2C1c1ccc([N+](=O)[O-])cc1 (stereo not given)
zone of inhibition at 100 µg/mL [25]: 14.5 mm
zone of inhibition at 100 µg/mL [29]: 14.5 mm
zone of inhibition at 100 µg/mL [30]: 14.5 mm
zone of inhibition at 100 µg/mL [27]: 15.5 mm

MIC [35]: 500 µg/mL (≈ 1420 µM)
SMILES: COC1=CC(=O)C[C@@H](C)[C@]12Oc1c(Cl)c(OC)cc(OC)c1C2=O [GRISEOFULVIN]

MIC [4]: 125 µg/mL (≈ 434 µM)
MIC [5]: 162 µg/mL (≈ 564 µM)
MIC [6]: 150 µg/mL (≈ 520 µM)
IC50 [37]: 2.76 µM
SMILES: N#CC1=C(N)Oc2[nH]c(=O)[nH]c(=O)c2C1c1cccs1 (stereo not given)
zone of inhibition at 20000 µg/mL [31]: 16 mm
zone of inhibition at 20000 µg/mL [32]: 20 mm
zone of inhibition at 20000 µg/mL [36]: 14 mm

SMILES: Cc1ccc(C2C(C#N)=C(N)Oc3[nH]c(=O)[nH]c(=O)c32)s1 (stereo not given)
zone of inhibition at 20000 µg/mL [10]: 18 mm
zone of inhibition at 20000 µg/mL [31]: 16 mm
zone of inhibition at 20000 µg/mL [36]: 14 mm
